Measured values: publication PMC11120720, “Linking Variability in Phytochemical Composition with Safety Profile of Thymus carnosus Boiss. Extracts: Effect of Major Compounds and Evaluation of Markers of Oxidative Stress and Cell Death” (International Journal of Molecular Sciences, 2024)
Read-outs that look alike come from different tables or passages of the source.

Experiments:
[1] = test system: human prostate carcinoma (DU 145) cells; conditions: cited from earlier work
[2] = test system: HONE-2 nasopharyngeal carcinoma cells; design: method as in PMID 31981746; conditions: 50 µM; cited from earlier work
[3] = test system: human small cell lung cancer cells (SCLCs); design: method as in doi:10.4314/tjpr.v14i8.11; conditions: 50 and 100 µM; cited from earlier work
[4] = test system: DLD-1, Dukes-type C colorectal adenocarcinoma; conditions: cited from earlier work
Caco-2 cells [5] = conditions: compound 50 µM, 24 h
Procedure: (§1) Flow cytometry was used to analyze the effect of T. carnosus extracts on intracellular ROS, modulation of mitochondrial membrane potential (MMP), cell cycle arrest, and apoptotic/necrotic cell death induction.
(§2) Both one- and two-color assays were performed using a BD Accuri™ C6 cytometer (Becton Dickinson, Franklin Lakes, NJ, USA), and 10,000 gated events were collected from each sample [1]. For flow cytometry assays, cells were handled as described previously but seeded at a density 5 × 10^4 cells/mL (750 μL/well) in 12-well plates. Caco-2 and HepG2 cells were incubated for 24 h with the extracts (100 µg/mL) or individual phytochemicals (50 µM) diluted in FBS-free culture media h. After incubation, test solutions were removed; the cells were washed with PBS and detached from the plates using trypsin-EDTA. Once transferred to centrifuge tubes, the cells were centrifuged (bench micro-centrifuge; 3000 rpm; 3 min), the supernatant was discarded, and a new wash cycle was performed. The cells were then equally divided for each assay. A negative control was used in all assays consisting of nonexposed cells incubated only with culture media.
(§3) Mitochondrial membrane potential (MMP) was evaluated using 5,5″,6,6″-tetrachloro-1,1″,3,3″-tetraethylbenzimidazolylcarbocyanineiodide (JC-1). Cells were processed as described for DCFDA but incubated with 200 µL of JC-1 (2 µM, in FBS-free DMEM) for 20 min (37 °C, in the dark).

HepG2 cells [6] = assay: Alamar Blue cell viability assay, HepG2; type: cell-based, human; conditions: for IC50: Homo sapiens, HepG2
Procedure: (§4) The safety profile of T. carnosus AD and HE extracts was evaluated in Caco-2 and HepG2 cells using an Alamar Blue® (Invitrogen; Alfagene, Lisboa, Portugal) assay. An initial screening was performed for all extracts at concentrations ranging between 100 and 1000 µg/mL. Due to the higher toxicity of the HE extracts, which was previously described for various extracts of Thymus species using the same extraction methods (e.g., T. mastichina and Thymus zygis), a different set of concentrations was used for the HE extracts (between 100 and 300 µg/mL for Caco-2 cells and 50 and 150 µg/mL for HepG2 cells). Figure 1 presents the data related to the cell viability assays in Caco-2 (panels A–E) and HepG2 cells (panels F–J) exposed to T. carnosus extracts, as indicated.
(§5) The safety profile of T. carnosus extracts was assessed in Caco-2 and HepG2 cells. Caco-2 (human colon adenocarcinoma cell line) were obtained from CLS (Cell Lines Service, Eppelheim, Germany), and HepG2 (human hepatocellular carcinoma cell line) were obtained from ATCC (American Type Culture Collection, Manassas, VA, USA).
(§6) Cell culture maintenance, handling, subculturing, and seeding were performed as described by Silva et al., 2020 [5], and cell viability was assessed using an Alamar Blue® assay, as described by Andreani et al., 2014 [64]. Concentrations ranged between 100 and 1000 µg/mL for AD extracts in both cell lines and 100 to 300 µg/mL or 50 to 150 µg/mL for HE extracts in Caco-2 and HepG2 cells, respectively. The effect of individual compounds on cell viability was assessed for concentrations ranging from 50 to 300 µM. All test solutions were prepared by diluting the samples in FBS-free culture media from the stock solutions described in Section 3.2, just prior to being used.
(§7) The results are presented as mean ± SD of at least three independent assays. The calculation of IC50 values was performed as described by Silva et al., 2020 [5]. Data analysis, graphical design, and statistical analysis were performed using Microsoft Office Excel (Professional Plus 2019; Microsoft Corporation, Washington, DC, USA) and GraphPad Prism (Version 8; GraphPad Software Inc., San Diego, CA, USA). Flow cytometry data analysis was performed using BD Accuri™ C6 Software, version 1.0.264.21 (Becton Dickinson, San Diego, CA, USA).

[7] = Alamar Blue cell viability assay, Caco-2; type: cell-based, human; conditions: human, Caco-2
Procedure: as §4, §5, §6, §7

Caco-2 cells [8] = assay: Alamar Blue cell viability assay, Caco-2; type: cell-based, human; conditions: for IC50: Homo sapiens, Caco-2
Procedure: as §4, §5, §6, §7

[9] = test system: HCT-116 human colorectal carcinoma cells; conditions: cited from earlier work
HeLa cells = conditions: cited from earlier work
[10] = test system: NPC-39 nasopharyngeal carcinoma cells; design: method as in PMID 31981746; conditions: 50 µM; cited from earlier work
[11] = test system: human lung cancer (A549) cells; conditions: cited from earlier work
[12] = test system: human lung adenocarcinoma (H1975) cells; conditions: cited from earlier work
Caco-2 cells [13] = assay: Cell cycle arrest (PI, flow cytometry), Caco-2; type: cell-based; conditions: compound 50 µM, 24 h
Procedure: (§8) The cells were then equally divided for each assay.
(§9) Cell cycle arrest assessment was performed as described in [1]. Cells were processed as described above until cell detachment and centrifuged, after which the second washing step was performed with ice-cold PBS (0 °C). After centrifugation, the supernatant was discarded, and cells were fixed with 500 µL of ethanol:PBS solution (70:30, % v/v, previously cooled at −20 °C) for at least 4 h at −20 °C. After fixation, two washing cycles were performed: the first with ice-cold PBS (0 °C) and the second with room-temperature PBS, followed by the addition of 200 µL of a PBS solution containing PI (50 µg/mL), RNAse A (50 µg/mL), and Triton X-100 (0.1%). Cells were incubated for 30 min at 37 °C, and then cells were washed once with PBS to remove the staining solution. After resuspension in PBS, the data were acquired.

[14] = test system: colorectal cancer cell line CT26; design: method as in PMID 29459827; conditions: cited from earlier work
HepG2 cells [15] = assay: Cell cycle arrest (PI, flow cytometry), HepG2; type: cell-based, human; conditions: compound 50 µM, 24 h
Procedure: as §8, §9

HepG2 cells [16] = conditions: cited from earlier work
[17] = Alamar Blue cell viability assay, HepG2; type: cell-based, human; conditions: human
Procedure: as §4, §5, §6, §7

HepG2 cells [18] = assay: Annexin V-FITC/PI apoptosis/necrosis, HepG2; type: cell-based, human; conditions: compound 50 µM, 24 h
Procedure: as §8
(§10) For the assessment of apoptotic/necrotic cell death, an Annexin V-FITC (Thermo Fisher Scientific, Waltham, MA, USA) and propidium iodide (PI; Merck, Darmstadt, Germany) double-staining assay was used to evaluate the apoptotic/necrotic cell death induced by T. carnosus extracts and by individual phytochemicals, as described previously. Briefly, after detachment and washing, the supernatant was discarded, and 200 µL of Annexin V-FITC (1:200 dilution in Annexin-binding buffer [10 mM HEPES sodium salt, 150 mM NaCl, 5 mM KCl, 5 mM MgCl2, and 1.8 mM CaCl2; pH = 7.4]) was added. Cells were incubated for 20 min (room temperature, in the dark). After incubation, 5 µL of propidium iodide (PI; 50 µg/mL) was added, the cells were incubated for 5 min on ice (in the dark), and the data were acquired.

HepG2 cells [19] = assay: Intracellular ROS (DCFDA, flow cytometry), HepG2; type: cell-based, human; conditions: compound 50 µM, 24 h
Procedure: as §8
(§11) Intracellular ROS level assessment was performed as described by Silva et al., 2022 [65], using dichlorodihydrofluorescein diacetate (DCFDA). Cells obtained in the previous step were centrifuged, the supernatant discarded, and 200 µL of DCFDA (10 µM in FBS-free DMEM) was added. Cells were incubated for 45 min (37 °C, in the dark), washed to remove excess probe, and resuspended in PBS for data acquisition.

HepG2 cells [20] = assay: Mitochondrial membrane potential (JC-1, flow cytometry), HepG2; type: cell-based, human; conditions: compound 50 µM, 24 h
Procedure: as §1, §2, §3

Caco-2 cells [21] = conditions: cited from earlier work
Caco-2 cells [22] = assay: Annexin V-FITC/PI apoptosis/necrosis, Caco-2; type: cell-based; conditions: compound 50 µM, 24 h
Procedure: as §8, §10

Caco-2 cells [23] = assay: Intracellular ROS (DCFDA, flow cytometry), Caco-2; type: cell-based; conditions: compound 50 µM, 24 h
Procedure: as §8, §11

[24] = test system: murine melanoma cells (B16-BL6 cells); design: method as in PMID 15538571; conditions: cited from earlier work
[25] = test system: human prostate cancer cells; design: method as in PMID 29898731; conditions: 40 µM; cited from earlier work
[26] = 24 h exposure, read-out: IC50 (µM) - HepG2 cells: 24 h
[27] = 48 h exposure, read-out: IC50 (µM) - HepG2 cells: 48 h
[28] = 24 h exposure, read-out: IC50 (µM) - Caco-2 cells: 24 h
[29] = 48 h exposure, read-out: IC50 (µM) - Caco-2 cells: 48 h

## O=C(/C=C/c1ccc(O)c(O)c1/C=C/c1ccc(O)c(O)c1)O[C@H](Cc1ccc(O)c(O)c1)C(=O)O [Salvianolic acid A, salvianolic acid A]
[1]
  IC50: ≤ 30 µM
[2]
  effect on cell viability, HONE-2: no reduction in cell viability
[3]
  MMP modulation, SCLC cells: loss of MMP
[4]
  concentrations with no or low cytotoxicity, DLD-1: up to 50 µM
Caco-2 cells [5]
  MMP modulation, Caco-2: significant loss of MMP
HepG2 cells [6]; [26]
  IC50: > 300 µM
HepG2 cells [6]; [27]
  IC50: > 300 µM
[7]
  viability at 48 h, 300 µM: 54.4%
Caco-2 cells [8]; [28]
  IC50: > 300 µM
Caco-2 cells [8]; [29]
  IC50: > 300 µM
[9]
  concentrations with no or low cytotoxicity, HCT-116: up to 50 µM
HeLa cells
  IC50: ≤ 30 µM
[10]
  effect on cell viability, NPC-39: no reduction in cell viability
[11]
  IC50: ≤ 30 µM
[12]
  IC50: ≤ 30 µM

## O=C(/C=C/c1ccc(O)c(O)c1)O[C@H](Cc1ccc(O)c(O)c1)C(=O)O [Rosmarinic acid]
Caco-2 cells [13]
  cell cycle effect, Caco-2: cell cycle arrest in G0/G1
[14]
  cell cycle effect, CT26: cell cycle arrest in G0/G1
HepG2 cells [15]
  cell cycle effect, HepG2: induced cell cycle arrest in both cell lines but in different phases
HepG2 cells [16]
  concentrations giving significant reduction in HepG2 cell viability: ≥ 34.69 µM
HepG2 cells [16]; read-out: IC50 (48 h), HepG2 cells, 48 h
  IC50: 91 µM
[17]
  viability at 24 h, 300 µM: 65.2%
HepG2 cells [6]; [26]
  IC50: > 300 µM
HepG2 cells [6]; [27]
  IC50: > 300 µM
HepG2 cells [18]
  cell death induction, HepG2: necrosis in HepG2 cells
HepG2 cells [19]
  change in intracellular ROS, HepG2: significant (p < 0.05) increase in intracellular HepG2 ROS levels
[7]
  viability at 24 h, 300 µM: 87.8%
  viability at 48 h, 300 µM: 72.6%
Caco-2 cells [8]; [28]
  IC50: > 300 µM
Caco-2 cells [8]; [29]
  IC50: > 300 µM
[9]
  cell cycle effect, HCT-116: cell cycle arrest in G0/G1
HepG2 cells [20]
  MMP modulation, HepG2: slight decrease in MMP
Caco-2 cells [21]; Caco-2
  concentrations that did not reduce Caco-2 cell viability: ≤ 90 µM
Caco-2 cells [22]
  cell death induction, Caco-2: significant increase in both late apoptosis and necrosis
Caco-2 cells [23]
  change in intracellular ROS, Caco-2: neither RA nor eriodictyol induced ROS increases

## O=c1c(O)c(-c2ccc(O)c(O)c2)oc2cc(O)cc(O)c12 [Quercetin, quercetin]
Caco-2 cells [13]
  cell cycle effect, Caco-2: cell cycle arrest in the S and G2/M phases
HepG2 cells [15]
  cell cycle effect, HepG2: cell cycle arrest was observed in the G0/G1 phase
HepG2 cells [16]; 24 h of exposure
  concentrations reducing HepG2 cell viability: ≥ 33 µM
[17]; HepG2 cells, 50-100 µM, 48 h
  viability at 48 h: ≤ 20%
HepG2 cells [6]; 50 µM = lowest concentration tested, Figure 2M
  concentrations reducing HepG2 cell viability: ≥ 50 µM
HepG2 cells [6]; [26]
  IC50: 141 µM
HepG2 cells [6]; [27]
  IC50: 10.1 µM
[24]
  MMP modulation, B16-BL6: loss of MMP
HepG2 cells [18]
  % of healthy HepG2 cells: ~ 76%
  cell death induction, HepG2: shift in the cell population to both early and late apoptosis
HepG2 cells [19]
  change in intracellular ROS, HepG2: significant increase in ROS
[7]; 50 µM, 48 h, Figure 2E
  viability at 48 h, 50 µM: 77.6%
[7]; 50-100 µM, 48 h, read-out: cell viability, Caco-2
  viability at 48 h: ≥ 68%
[7]; concentrations up to 200 µM, 24 h, Figure 2E
  viability at 24 h: ~90%
Caco-2 cells [8]; 24 h
  concentrations giving significant decrease in Caco-2 cell viability: ≥ 75 µM
Caco-2 cells [8]; [28]
  IC50: > 300 µM
Caco-2 cells [8]; [29]
  IC50: 109 µM
HepG2 cells [20]
  MMP modulation, HepG2: did not induce variations in the MMP
[25]
  MMP modulation, prostate cancer cells: loss of MMP
Caco-2 cells [21]; 50 µM, 48 h
  cell viability, Caco-2: 75–80%
Caco-2 cells [21]; 100 µM, 24 h
  effect on Caco-2 cell viability: no changes in cell viability
Caco-2 cells [22]
  % of healthy Caco-2 cells: ~ 86%
  cell death induction, Caco-2: shift in the cell distribution into late apoptosis
